From patent US20220411380A1, “ACID ADDITION SALT OF RORy REGULATOR” (JIANGSU HENGRUI MEDICINE CO., LTD., priority 2019, published 2022)

Columns and labels:
Assay type in all cases: physicochemical
[1] = DVS (dynamic vapor sorption) characterization; conditions: for Crystalline form before and after DVS (XRPD comparison): 0-95% humidity change; for DVS weight change / Hygroscopicity: 25° C., 20.0% RH to 80.0% RH; for Hygroscopicity: DVS
Procedure: DVS refers to dynamic vapor sorption: The measurement was conducted with a Surface Measurement Systems advantage 2 at 25° C., starting from 50% humidity in humidity range of 0%-95% with a step size of 10%. The judging criterion was that the mass change of each gradient dM/dT is less than 0.002 and TMAX is less than 360 min in two circles.

[2] = Long-term/accelerated stability study of crystalline form α of hydrochloride and crystalline form I of hydrobromide
Procedure: The crystalline form α of the hydrochloride of the compound of formula II was let stand in conditions of 25° C./60% RH and 40° C./75% RH to examine its stability.
The crystalline form I of the hydrobromide of the compound of formula II was let stand in conditions of 25° C./60% RH and 40° C./75% RH to examine its stability.

[3] = Influencing factor study of crystalline form α of hydrochloride and crystalline form I of hydrobromide
Procedure: Sample of the crystalline form α of the hydrochloride and the crystalline form I of the hydrobromide of the compound of formula II were let stand open to examine the stability of the samples in conditions of illumination (4500 Lux), high temperature (40° C. and 60° C.) and high humidity (RH 75% and RH 92.5%) in a period of 30 days.

[4] = accelerated test condition, 70% humidity
[5] = extreme condition, 90% humidity
[6] = normal storage condition, 60% humidity/25° C.

Structure (SMILES): NC(=O)C[C@H](c1ccc(S(=O)(=O)CC2CC2)cc1)c1nc2cc(-c3ccccc3OC(F)F)c(Cl)cc2[nH]1.O=C(O)/C=C\C(=O)O
- Crystalline form before and after DVS (XRPD comparison) [1]: crystalline form did not change during DVS
- DVS weight change [1]: 1.731%
- Hygroscopicity [1]: slightly hygroscopic
- Vapor sorption [1, 4]: about 1.809%
- Vapor sorption [1, 5]: about 3.077%
- Vapor sorption [1, 6]: about 1.438%

Structure (SMILES): Br.NC(=O)C[C@H](c1ccc(S(=O)(=O)CC2CC2)cc1)c1nc2cc(-c3ccccc3OC(F)F)c(Cl)cc2[nH]1
- Crystalline form before and after DVS (XRPD comparison) [1]: crystalline form did not change during DVS
- DVS weight change [1]: 0.636%
- Hygroscopicity [1]: slightly hygroscopic
- Vapor sorption [1, 4]: about 0.702%
- Vapor sorption [1, 5]: about 1.094%
- Vapor sorption [1, 6]: about 0.589%
- Chiral purity (%) ([2]; 25° C., 60% RH, Day 7): 99.297%
- Color and appearance ([2]; 25° C., 60% RH, Day 7): White solid
- Crystalline form ([2]; 25° C., 60% RH, Day 7): Not changed
- Main peak purity (%) ([2]; 25° C., 60% RH, Day 7): 97.689%
- Chiral purity (%) ([2]; 25° C., 60% RH, Day 14): 99.198%
- Color and appearance ([2]; 25° C., 60% RH, Day 14): White solid
- Crystalline form ([2]; 25° C., 60% RH, Day 14): Not changed
- Main peak purity (%) ([2]; 25° C., 60% RH, Day 14): 97.697%
- Bromide ion content (%) ([2]; 25° C., 60% RH, Month 1): 11.20%
- Chiral purity (%) ([2]; 25° C., 60% RH, Month 1): 99.255%
- Color and appearance ([2]; 25° C., 60% RH, Month 1): White solid
- Crystalline form ([2]; 25° C., 60% RH, Month 1): Not changed
- Main peak purity (%) ([2]; 25° C., 60% RH, Month 1): 97.649%
- Bromide ion content (%) ([2]; 25° C., 60% RH, Month 2): 11.05%
- Chiral purity (%) ([2]; 25° C., 60% RH, Month 2): 99.363%
- Color and appearance ([2]; 25° C., 60% RH, Month 2): White solid
- Crystalline form ([2]; 25° C., 60% RH, Month 2): Not changed
- Main peak purity (%) ([2]; 25° C., 60% RH, Month 2): 97.661%
- Chiral purity (%) ([2]; 25° C., 60% RH, Month 3): 99.283%
- Color and appearance ([2]; 25° C., 60% RH, Month 3): White solid
- Crystalline form ([2]; 25° C., 60% RH, Month 3): Not changed
- Main peak purity (%) ([2]; 25° C., 60% RH, Month 3): 97.552%
- Bromide ion content (%) ([2]; 25° C., 60% RH, Month 6): 11.82%
- Chiral purity (%) ([2]; 25° C., 60% RH, Month 6): 99.228%
- Color and appearance ([2]; 25° C., 60% RH, Month 6): White solid
- Crystalline form ([2]; 25° C., 60% RH, Month 6): Not changed
- Main peak purity (%) ([2]; 25° C., 60% RH, Month 6): 96.981%
- Chiral purity (%) ([2]; 40° C., 75% RH, Day 7): 99.295%
- Color and appearance ([2]; 40° C., 75% RH, Day 7): White solid
- Crystalline form ([2]; 40° C., 75% RH, Day 7): Not changed
- Main peak purity (%) ([2]; 40° C., 75% RH, Day 7): 97.661%
- Chiral purity (%) ([2]; 40° C., 75% RH, Day 14): 99.174%
- Color and appearance ([2]; 40° C., 75% RH, Day 14): White solid
- Crystalline form ([2]; 40° C., 75% RH, Day 14): Not changed
- Main peak purity (%) ([2]; 40° C., 75% RH, Day 14): 97.660%
- Bromide ion content (%) ([2]; 40° C., 75% RH, Month 1): 11.49%
- Chiral purity (%) ([2]; 40° C., 75% RH, Month 1): 99.262%
- Color and appearance ([2]; 40° C., 75% RH, Month 1): White solid
- Crystalline form ([2]; 40° C., 75% RH, Month 1): Not changed
- Main peak purity (%) ([2]; 40° C., 75% RH, Month 1): 97.558%
- Bromide ion content (%) ([2]; 40° C., 75% RH, Month 2): 10.93%
- Chiral purity (%) ([2]; 40° C., 75% RH, Month 2): 99.328%
- Color and appearance ([2]; 40° C., 75% RH, Month 2): White solid
- Crystalline form ([2]; 40° C., 75% RH, Month 2): Not changed
- Main peak purity (%) ([2]; 40° C., 75% RH, Month 2): 97.561%
- Chiral purity (%) ([2]; 40° C., 75% RH, Month 3): 99.275%
- Color and appearance ([2]; 40° C., 75% RH, Month 3): White solid
- Crystalline form ([2]; 40° C., 75% RH, Month 3): Not changed
- Main peak purity (%) ([2]; 40° C., 75% RH, Month 3): 97.259%
- Bromide ion content (%) ([2]; 40° C., 75% RH, Month 6): 11.91%
- Chiral purity (%) ([2]; 40° C., 75% RH, Month 6): 99.199%
- Color and appearance ([2]; 40° C., 75% RH, Month 6): White solid
- Crystalline form ([2]; 40° C., 75% RH, Month 6): Not changed
- Main peak purity (%) ([2]; 40° C., 75% RH, Month 6): 96.412%
- Bromide ion content (%) ([2]; Initial, 0): 11.75%
- Chiral purity (%) ([2]; Initial, 0): 99.298%
- Color and appearance ([2]; Initial, 0): White solid
- Crystalline form ([2]; Initial, 0): Crystalline
- Main peak purity (%) ([2]; Initial, 0): 97.689%
- Stability (conclusion of long-term/accelerated study) ([2]; long term and acceleration, 6 months): good physical and chemical stability
- Chiral purity (%) ([3]; 40° C., 7 days): 99.293%
- Color and appearance ([3]; 40° C., 7 days): White solid
- Crystalline form ([3]; 40° C., 7 days): Not changed
- Main peak purity (%) ([3]; 40° C., 7 days): 97.716%
- Chiral purity (%) ([3]; 40° C., 14 days): 99.165%
- Color and appearance ([3]; 40° C., 14 days): White solid
- Crystalline form ([3]; 40° C., 14 days): Not changed
- Main peak purity (%) ([3]; 40° C., 14 days): 97.727%
- Bromide ion content (%) ([3]; 40° C., 30 days): 11.73%
- Chiral purity (%) ([3]; 40° C., 30 days): 99.251%
- Color and appearance ([3]; 40° C., 30 days): White solid
- Crystalline form ([3]; 40° C., 30 days): Not changed
- Main peak purity (%) ([3]; 40° C., 30 days): 97.644%
- Chiral purity (%) ([3]; 60° C., 7 days): 99.299%
- Color and appearance ([3]; 60° C., 7 days): White solid
- Crystalline form ([3]; 60° C., 7 days): Not changed
- Main peak purity (%) ([3]; 60° C., 7 days): 97.645%
- Chiral purity (%) ([3]; 60° C., 14 days): 99.187%
- Color and appearance ([3]; 60° C., 14 days): White solid
- Crystalline form ([3]; 60° C., 14 days): Not changed
- Main peak purity (%) ([3]; 60° C., 14 days): 97.671%
- Bromide ion content (%) ([3]; 60° C., 30 days): 11.50%
- Chiral purity (%) ([3]; 60° C., 30 days): 99.263%
- Color and appearance ([3]; 60° C., 30 days): White solid
- Crystalline form ([3]; 60° C., 30 days): Not changed
- Main peak purity (%) ([3]; 60° C., 30 days): 97.630%
- Chiral purity (%) ([3]; 75% RH, 7 days): 99.293%
- Color and appearance ([3]; 75% RH, 7 days): White solid
- Crystalline form ([3]; 75% RH, 7 days): Not changed
- Main peak purity (%) ([3]; 75% RH, 7 days): 97.687%
- Chiral purity (%) ([3]; 75% RH, 14 days): 99.179%
- Color and appearance ([3]; 75% RH, 14 days): White solid
- Crystalline form ([3]; 75% RH, 14 days): Not changed
- Main peak purity (%) ([3]; 75% RH, 14 days): 97.705%
- Bromide ion content (%) ([3]; 75% RH, 30 days): 11.73%
- Chiral purity (%) ([3]; 75% RH, 30 days): 99.274%
- Color and appearance ([3]; 75% RH, 30 days): White solid
- Crystalline form ([3]; 75% RH, 30 days): Not changed
- Main peak purity (%) ([3]; 75% RH, 30 days): 97.676%
- Chiral purity (%) ([3]; 92.5% RH, 7 days): 99.294%
- Color and appearance ([3]; 92.5% RH, 7 days): White solid
- Crystalline form ([3]; 92.5% RH, 7 days): Not changed
- Main peak purity (%) ([3]; 92.5% RH, 7 days): 97.706%
- Chiral purity (%) ([3]; 92.5% RH, 14 days): 99.175%
- Color and appearance ([3]; 92.5% RH, 14 days): White solid
- Crystalline form ([3]; 92.5% RH, 14 days): Not changed
- Main peak purity (%) ([3]; 92.5% RH, 14 days): 97.701%
- Bromide ion content (%) ([3]; 92.5% RH, 30 days): 11.55%
- Chiral purity (%) ([3]; 92.5% RH, 30 days): 99.268%
- Color and appearance ([3]; 92.5% RH, 30 days): White solid
- Crystalline form ([3]; 92.5% RH, 30 days): Not changed
- Main peak purity (%) ([3]; 92.5% RH, 30 days): 97.653%
- Chiral purity (%) ([3]; 4500 Lux, 7 days): 99.297%
- Color and appearance ([3]; 4500 Lux, 7 days): White solid
- Crystalline form ([3]; 4500 Lux, 7 days): Not changed
- Main peak purity (%) ([3]; 4500 Lux, 7 days): 97.683%
- Chiral purity (%) ([3]; 4500 Lux, 14 days): 99.152%
- Color and appearance ([3]; 4500 Lux, 14 days): White solid
- Crystalline form ([3]; 4500 Lux, 14 days): Not changed
- Main peak purity (%) ([3]; 4500 Lux, 14 days): 97.660%
- Bromide ion content (%) ([3]; 4500 Lux, 30 days): 11.18%
- Chiral purity (%) ([3]; 4500 Lux, 30 days): 99.243%
- Color and appearance ([3]; 4500 Lux, 30 days): White solid
- Crystalline form ([3]; 4500 Lux, 30 days): Not changed
- Main peak purity (%) ([3]; 4500 Lux, 30 days): 97.626%
- Bromide ion content (%) ([3]; Initial, 0 days): 11.75%
- Chiral purity (%) ([3]; Initial, 0 days): 99.298%
- Color and appearance ([3]; Initial, 0 days): White solid
- Crystalline form ([3]; Initial, 0 days): Crystalline
- Main peak purity (%) ([3]; Initial, 0 days): 97.689%
- Stability (conclusion of influencing factor study) ([3]; illumination, 40° C. and 60° C., high humidities of 75% and 92.5%): good physical and chemical stabilities

Structure (SMILES): Cl.NC(=O)C[C@H](c1ccc(S(=O)(=O)CC2CC2)cc1)c1nc2cc(-c3ccccc3OC(F)F)c(Cl)cc2[nH]1 [Crystalline form β of hydrochloride of compound of formula I]
- Crystalline form before and after DVS (XRPD comparison) [1]: crystalline form changed during DVS
- DVS weight change [1]: 1.235%
- Hygroscopicity [1]: slightly hygroscopic
- Vapor sorption [1, 4]: about 1.954%
- Vapor sorption [1, 5]: about 2.534%
- Vapor sorption [1, 6]: about 1.755%
